Measurements from patent US9649309B2 (priority 2014, dated 2017).

Columns and labels:
Axl = Axl (Homo sapiens (Human), UniProt P30530); conditions: read-out: IC50 Axl
Tyro3 = Tyro3 (Homo sapiens (Human), UniProt Q06418); conditions: read-out: IC50 Tyro3
Sequence of Tyro3 (Q06418 41-890 limits assumed): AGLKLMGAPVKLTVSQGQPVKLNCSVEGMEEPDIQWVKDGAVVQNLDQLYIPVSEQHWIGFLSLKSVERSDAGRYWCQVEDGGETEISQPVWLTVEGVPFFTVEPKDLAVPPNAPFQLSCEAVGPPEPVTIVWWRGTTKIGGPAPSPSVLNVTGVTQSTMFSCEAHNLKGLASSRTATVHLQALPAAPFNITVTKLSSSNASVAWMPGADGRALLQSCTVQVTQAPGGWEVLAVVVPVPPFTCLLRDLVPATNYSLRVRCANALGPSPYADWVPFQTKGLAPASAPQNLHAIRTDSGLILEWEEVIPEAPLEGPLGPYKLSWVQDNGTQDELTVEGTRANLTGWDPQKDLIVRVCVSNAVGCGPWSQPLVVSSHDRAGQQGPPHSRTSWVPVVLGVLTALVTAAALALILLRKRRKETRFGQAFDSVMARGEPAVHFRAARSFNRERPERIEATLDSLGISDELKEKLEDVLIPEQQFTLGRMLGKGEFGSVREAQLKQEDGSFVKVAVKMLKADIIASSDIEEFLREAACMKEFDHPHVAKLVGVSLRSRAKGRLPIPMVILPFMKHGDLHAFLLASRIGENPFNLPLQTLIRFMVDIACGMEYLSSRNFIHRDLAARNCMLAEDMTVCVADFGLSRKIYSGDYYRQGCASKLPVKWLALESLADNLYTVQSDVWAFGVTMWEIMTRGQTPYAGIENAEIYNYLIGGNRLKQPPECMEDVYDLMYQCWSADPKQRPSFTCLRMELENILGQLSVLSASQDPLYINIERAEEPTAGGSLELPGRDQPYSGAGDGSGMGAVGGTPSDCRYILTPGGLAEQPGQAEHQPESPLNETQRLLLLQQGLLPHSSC

Sequence of Axl (P30530 26-894 limits assumed): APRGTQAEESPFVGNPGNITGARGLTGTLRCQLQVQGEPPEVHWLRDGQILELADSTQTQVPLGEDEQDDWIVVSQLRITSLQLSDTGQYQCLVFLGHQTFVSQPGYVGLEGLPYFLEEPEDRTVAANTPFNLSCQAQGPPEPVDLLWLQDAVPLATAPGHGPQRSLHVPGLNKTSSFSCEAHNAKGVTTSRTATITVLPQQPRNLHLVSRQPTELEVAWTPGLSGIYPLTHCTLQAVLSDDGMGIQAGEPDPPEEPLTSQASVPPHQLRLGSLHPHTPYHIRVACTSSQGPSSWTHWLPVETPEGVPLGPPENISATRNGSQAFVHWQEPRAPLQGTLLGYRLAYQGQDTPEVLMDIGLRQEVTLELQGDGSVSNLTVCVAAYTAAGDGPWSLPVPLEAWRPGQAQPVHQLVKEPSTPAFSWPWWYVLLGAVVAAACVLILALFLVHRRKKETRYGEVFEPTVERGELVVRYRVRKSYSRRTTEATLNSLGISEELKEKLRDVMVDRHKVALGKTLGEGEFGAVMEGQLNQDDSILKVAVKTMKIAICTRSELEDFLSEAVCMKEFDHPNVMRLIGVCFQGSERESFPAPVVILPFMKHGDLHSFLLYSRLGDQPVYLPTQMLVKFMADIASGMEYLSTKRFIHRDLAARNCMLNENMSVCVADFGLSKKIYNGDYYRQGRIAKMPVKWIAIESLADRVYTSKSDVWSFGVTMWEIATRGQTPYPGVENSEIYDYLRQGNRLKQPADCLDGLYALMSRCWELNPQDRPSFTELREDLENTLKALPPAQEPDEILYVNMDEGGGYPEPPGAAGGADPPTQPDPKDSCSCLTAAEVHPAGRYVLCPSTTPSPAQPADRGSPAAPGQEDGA

`CCCCNc1ncc(-c2ccc(C3(N4CCOCC4)CCC3)cn2)c(NC2CCC(O)CC2)n1` (stereo not shown) [UNC3666A] was tested. Which IC50 (Axl) did it give?
Its IC50 is 52 nM.

What about the IC50 (Tyro3) of the same compound?
Its IC50 is 11 nM.

What does the source list for `CCCCNc1ncc(-c2ccc(C3(N4CCOCC4)CCCC3)cn2)c(NC2CCC(O)CC2)n1` (stereo not shown) [UNC3667A]?
IC50 (Axl): 47 nM; IC50 (Tyro3): 7.4 nM

`CCCC1(Nc2ncc(-c3ccc(CN4CCN(C)CC4)cn3)c(NC3CCC(O)CC3)n2)CC1` (stereo not shown) [UNC3668A] was tested. Which IC50 (Axl) did it give?
Its IC50 is 5300 nM.

What about the IC50 (Tyro3) of the same compound?
Its IC50 is 409 nM.

Which IC50 (Axl) does the source give for `CCCCNc1ncc(-c2ccc(CN3CCN[C@@H](C)C3)cn2)c(NC2CCC(O)CC2)n1` (stereo partly shown) [UNC4106A] here?
The IC50 was 47 nM.

What about the IC50 (Tyro3) of the same compound?
The IC50 was 22 nM.

Which results are given for `CCCCNc1ncc(-c2ccc(CN3C[C@H](C)NC[C@H]3C)cn2)c(NC2CCC(O)CC2)n1` (stereo partly shown) [UNC4109A]?
IC50 (Axl): 119 nM; IC50 (Tyro3): 28 nM

Which results are given for `CCCCNc1ncc(-c2ccc(CN3C[C@@H]4C[C@H]3CN4)cn2)c(NC2CCC(O)CC2)n1` (stereo partly shown) [UNC4112A]?
IC50 (Axl): 32 nM; IC50 (Tyro3): 19 nM

With `CCCCNc1ncc(-c2ccc(CN3CCN[C@H](C)C3)cn2)c(NC2CCC(O)CC2)n1` (stereo partly shown) [UNC4113A] as the compound, how does the IC50 (Axl) read?
Its IC50 is 55 nM.

What about the IC50 (Tyro3) of the same compound?
The IC50 was 18 nM.

For `CCCCNc1ncc(-c2ccc(CNC3CC4CCC(C3)N4C)cn2)c(N[C@H]2CC[C@H](O)CC2)n1` (stereo partly shown) [UNC4163A], which IC50 (Axl) is on record?
The IC50 was 20 nM.

And the IC50 (Tyro3)?
The IC50 was 8.7 nM.

What does the source list for `CCCCNc1ncc(-c2ccc(CNC3CC4CCC(C3)N4C)cn2)c(N[C@H]2CC[C@H](O)CC2)n1` (stereo partly shown) [UNC4165A]?
IC50 (Axl): 18 nM; IC50 (Tyro3): 8 nM

What does the source list for `CCCCNc1ncc(-c2ccc(CNC34CC5CC(CC(C5)C3)C4)cn2)c(N[C@H]2CC[C@H](O)CC2)n1` [UNC4166A]?
IC50 (Axl): 13 nM; IC50 (Tyro3): 9.4 nM

For `CCCCNc1ncc(-c2ccc(CN3C4CCCC3CC4)cn2)c(N[C@H]2CC[C@H](O)CC2)n1` [UNC4169A], which IC50 (Axl) is on record?
The IC50 was 9.6 nM.

What about the IC50 (Tyro3) of the same compound?
The IC50 was 3.9 nM.

For `O[C@H]1CC[C@H](Nc2nc(NCCC3CC3)ncc2-c2ccc(CN3CCCC3)cn2)CC1` [UNC4197A], which IC50 (Axl) is on record?
The IC50 was 43 nM.

And the IC50 (Tyro3)?
The IC50 was 24 nM.

With `CCCCNc1ncc(-c2ccc(CCCN3CCCC3)cn2)c(N[C@H]2CC[C@H](O)CC2)n1` [UNC4220A] as the compound, how does the IC50 (Axl) read?
The IC50 was 122 nM.

What about the IC50 (Tyro3) of the same compound?
The IC50 was 68 nM.

`CCCCNc1ncc(-c2ccc(CCN3CCCC3)cn2)c(N[C@H]2CC[C@H](O)CC2)n1` [UNC4221A] was tested. Which IC50 (Axl) did it give?
The IC50 was 104 nM.

And the IC50 (Tyro3)?
The IC50 was 43 nM.

How did the IC50 (Axl) turn out when `CCCCNc1ncc(-c2cc(Cl)c(CN3CCCC3)cn2)c(N[C@H]2CC[C@H](O)CC2)n1` [UNC4222A] was run?
Its IC50 is 39 nM.

What about the IC50 (Tyro3) of the same compound?
The IC50 was 16 nM.

Which results are given for `CCCCNc1ncc(-c2cc(O)c(CN3CCCC3)cn2)c(N[C@H]2CC[C@H](O)CC2)n1` [UNC4230A]?
IC50 (Axl): 1760 nM; IC50 (Tyro3): 734 nM

What does the source list for `CCCCNc1ncc(C(=O)NCc2ccc(-c3ccccc3)nc2)c(N[C@H]2CC[C@H](O)CC2)n1` [UNC4234A]?
IC50 (Axl): 470 nM; IC50 (Tyro3): 195 nM

What does the source list for `CCCCNc1ncc(C(=O)NCc2ccc(-c3ccc4ccccc4c3)nc2)c(N[C@H]2CC[C@H](O)CC2)n1` [UNC4235A]?
IC50 (Axl): 1800 nM; IC50 (Tyro3): 1270 nM

Which IC50 (Axl) does the source give for `CCCCNc1ncc(C(=O)NCc2ccc(-c3cccnc3)nc2)c(N[C@H]2CC[C@H](O)CC2)n1` [UNC4236A] here?
Its IC50 is 216 nM.

And the IC50 (Tyro3)?
Its IC50 is 92 nM.

What does the source list for `CCCCNc1ncc(C(=O)NCc2ccc(-c3ccc(OC)cc3)nc2)c(N[C@H]2CC[C@H](O)CC2)n1` [UNC4238A]?
IC50 (Axl): 698 nM; IC50 (Tyro3): 242 nM

Which IC50 (Axl) does the source give for `CCCCNc1ncc(C(=O)NCc2ccc(-c3ccc(C#N)cc3)nc2)c(N[C@H]2CC[C@H](O)CC2)n1` [UNC4239A] here?
The IC50 was 977 nM.

And the IC50 (Tyro3)?
Its IC50 is 305 nM.

Which IC50 (Axl) does the source give for `CCCCNc1ncc(C(=O)NCc2ccc(-c3cccc(OC)c3)nc2)c(N[C@H]2CC[C@H](O)CC2)n1` [UNC4246A] here?
The IC50 was 489 nM.

And the IC50 (Tyro3)?
The IC50 was 244 nM.

How did the IC50 (Axl) turn out when `CCCCNc1ncc(C(=O)NCc2ccc(-c3ccccc3OC)nc2)c(N[C@H]2CC[C@H](O)CC2)n1` [UNC4255A] was run?
The IC50 was 336 nM.

What about the IC50 (Tyro3) of the same compound?
Its IC50 is 156 nM.

Which results are given for `CCCCNc1ncc(C(=O)NCc2ccc(C3=CCCCC3)nc2)c(N[C@H]2CC[C@H](O)CC2)n1` [UNC4256A]?
IC50 (Axl): 743 nM; IC50 (Tyro3): 340 nM

With `CCCCNc1ncc(C(=O)NCc2ccc(-c3c(C)noc3C)nc2)c(N[C@H]2CC[C@H](O)CC2)n1` [UNC4260A] as the compound, how does the IC50 (Axl) read?
The IC50 was 602 nM.

What about the IC50 (Tyro3) of the same compound?
Its IC50 is 256 nM.

Which results are given for `CCCCNc1ncc(-c2cc(NC3CCCCCC3)ncn2)c(N[C@H]2CC[C@H](O)CC2)n1` [UNC4261A]?
IC50 (Axl): 579 nM; IC50 (Tyro3): 380 nM

How did the IC50 (Axl) turn out when `CCCCNc1ncc(-c2cc(Nc3ccc(OC)cc3)ncn2)c(N[C@H]2CC[C@H](O)CC2)n1` [UNC4269A] was run?
The IC50 was 513 nM.

And the IC50 (Tyro3)?
Its IC50 is 234 nM.

For `CCCCNc1ncc(-c2cc(Nc3cccc(OC)c3)ncn2)c(N[C@H]2CC[C@H](O)CC2)n1` [UNC4270A], which IC50 (Axl) is on record?
The IC50 was 158 nM.

What about the IC50 (Tyro3) of the same compound?
The IC50 was 121 nM.

Which IC50 (Axl) does the source give for `CCCCNc1ncc(-c2cc(Nc3ccccc3OC)ncn2)c(N[C@H]2CC[C@H](O)CC2)n1` [UNC4272A] here?
The IC50 was 12300 nM.

What about the IC50 (Tyro3) of the same compound?
Its IC50 is 194 nM.

Which results are given for `CCCCNc1ncc(-c2ccc(CCN3CCCN(C)CC3)cn2)c(N[C@H]2CC[C@H](O)CC2)n1` [UNC4279A]?
IC50 (Axl): 67 nM; IC50 (Tyro3): 42 nM

For `CCCCNc1ncc(C(=O)NCc2ccc3ccccc3n2)c(N[C@H]2CC[C@H](O)CC2)n1` [UNC4286A], which IC50 (Axl) is on record?
The IC50 was 572 nM.

And the IC50 (Tyro3)?
The IC50 was 253 nM.

`CCCCNc1ncc(C(=O)NCC2CCNCC2)c(N[C@H]2CC[C@H](O)CC2)n1` [UNC4287A] was tested. Which IC50 (Axl) did it give?
The IC50 was 960 nM.

And the IC50 (Tyro3)?
Its IC50 is 494 nM.

For `CCCCNc1ncc(C(=O)NCC2CCN(C(C)=O)CC2)c(N[C@H]2CC[C@H](O)CC2)n1` [UNC4288A], which IC50 (Axl) is on record?
Its IC50 is 1050 nM.

What about the IC50 (Tyro3) of the same compound?
The IC50 was 262 nM.

`CCCCNc1ncc(C(=O)NCC2CCN(C(C)C)CC2)c(N[C@H]2CC[C@H](O)CC2)n1` [UNC4289A] was tested. Which IC50 (Axl) did it give?
Its IC50 is 420 nM.

And the IC50 (Tyro3)?
The IC50 was 178 nM.

How did the IC50 (Axl) turn out when `CCCCNc1ncc(C(=O)NCC2CCN(C3CCCCC3)CC2)c(N[C@H]2CC[C@H](O)CC2)n1` [UNC4302A] was run?
Its IC50 is 292 nM.

And the IC50 (Tyro3)?
Its IC50 is 153 nM.

With `C=CCN1CCC(CNC(=O)c2cnc(NCCCC)nc2N[C@H]2CC[C@H](O)CC2)CC1` [UNC4303A] as the compound, how does the IC50 (Axl) read?
The IC50 was 777 nM.

What about the IC50 (Tyro3) of the same compound?
Its IC50 is 486 nM.

Which IC50 (Axl) does the source give for `CCCCNc1ncc(C(=O)NCC2CCN(c3ccccc3)CC2)c(N[C@H]2CC[C@H](O)CC2)n1` [UNC4304A] here?
Its IC50 is 664 nM.

And the IC50 (Tyro3)?
The IC50 was 333 nM.

How did the IC50 (Axl) turn out when `CCCCNc1ncc(C(=O)NCc2cncnc2)c(N[C@H]2CC[C@H](O)CC2)n1` [UNC4307A] was run?
Its IC50 is 471 nM.

What about the IC50 (Tyro3) of the same compound?
Its IC50 is 217 nM.

`CCCCNc1ncc(-c2cc(Nc3cccc([N+](=O)[O-])c3)ncn2)c(N[C@H]2CC[C@H](O)CC2)n1` [UNC4322A] was tested. Which IC50 (Axl) did it give?
The IC50 was 30000 nM.

What about the IC50 (Tyro3) of the same compound?
The IC50 was 889 nM.

What does the source list for `CCCCNc1ncc(-c2cc(Nc3cccc(C(C)C)c3)ncn2)c(N[C@H]2CC[C@H](O)CC2)n1` [UNC4323A]?
IC50 (Axl): 30000 nM; IC50 (Tyro3): 619 nM

How did the IC50 (Axl) turn out when `CCCCNc1ncc(-c2cc(Nc3cccc(C(C)(C)C)c3)ncn2)c(N[C@H]2CC[C@H](O)CC2)n1` [UNC4333A] was run?
The IC50 was 30000 nM.

What about the IC50 (Tyro3) of the same compound?
Its IC50 is 867 nM.

What does the source list for `CCCCNc1ncc(-c2ccc(CC3CCNCC3)cn2)c(N[C@H]2CC[C@H](O)CC2)n1` [UNC4335A, trans-4-((2-(butylamino)-5-(5-(piperidin-4-ylmethyl)pyridin-2-yl)pyrimidin-4-yl)amino)cyclohexan-1-ol]?
IC50 (Axl): 137 nM; IC50 (Tyro3): 56 nM

Which results are given for `CCCCNc1ncc(-c2ccc(C=C3CCNCC3)cn2)c(N[C@H]2CC[C@H](O)CC2)n1` [UNC4336A]?
IC50 (Axl): 40 nM; IC50 (Tyro3): 13 nM

For `CCCCNc1ncc(-c2ccc(C=C3CCN(C)CC3)cn2)c(N[C@H]2CC[C@H](O)CC2)n1` [UNC4338A], which IC50 (Axl) is on record?
Its IC50 is 42 nM.

What about the IC50 (Tyro3) of the same compound?
Its IC50 is 20 nM.
